According to patent US20130172308A1, “ANTIMICROBIAL AGENTS” (John Grant COLLINS, priority 2011, published 2013):

Experiments:
E. coli = assay: Minimum Bactericidal Concentration (MBC) assay (CAMHB); format: cell-based, Escherichia coli; details: Table 4, all ΔΔ- enantiomers
Method: (§1) Further MIC assays and Minimum Bactericidal Concentration (MBC) assays were conducted against Gram-positive and Gram-negative bacterial strains using symmetric and non-symmetric, inert and labile complexes.

S. aureus = assay: as above; format: cell-based, Staphylococcus aureus; details: Table 4, all ΔΔ- enantiomers
Method: as §1

S. aureus ATCC 25923 = assay: MIC determination, broth micro-dilution (CAMHB); format: cell-based, Staphylococcus aureus
Method: (§2) Four strains of bacteria were chosen for the susceptibility tests: S. aureus ATCC 25923; MRSA (a wild clinical strain from the JCU culture collection); E. coli ATCC 25922 and P. aeruginosa ATCC 27853. The bacteria were grown on Mueller Hinton agar (OXOID, cat. No. CM0337) and suspended in growth medium cation-adjusted Mueller Hinton broth (CAMHB, OXOID, cat. No. CM0405). The MIC of each complex was determined in duplicate by standard micro-dilution methodology (British Society for Antimicrobial Chemotherapy Working Party, J. Antimicrob. Chemother., 1991, 27(suppl. D), 22) using gentamicin as the positive control. The ruthenium complexes were dissolved in CAMHB to a stock solution of […] and two-fold diluted in the broth in 96-well plates in a final volume of […] in each well. The same volume […] of bacterial suspension was added in each well making a concentration range of 0.25 mg ml^−1 to 128 mg ml^−1 for each complex. The plates were incubated at 37° C. for 24 h. The results are summarised in Table 1 below, using the following abbreviations: • Rubpm=ΔΔ-[{Ru(phen)2}2(μ-2,2′-bipyrimidine)]Cl4 • Rudppm=ΔΔ-[{Ru(phen)2}2(μ-4,6-bis(2-pyridyl)pyrimidine)]Cl4 • Rubb7trinuclear=Δ*Δ*-[{Ru*(phen)2}(μ-bb7){Ru(phen)}(μ-bb7){Ru*(phen)2}]Cl6 (only the two terminal metal centres are chiral, the two central metal centres are racemic) • Rubb7tetranuclear=Δ*Δ*-[{Ru*(phen)2}(μ-bb7) {Ru(phen)}(μ-bb7){Ru(phen)}(μ-bb7)-{Ru*(phen)2}]Cl8 (only the two terminal metal centres are chiral, the two central metal centres are racemic)
as §1

E. coli ATCC 25922 = assay: MIC determination, broth micro-dilution (CAMHB); format: cell-based, Escherichia coli
Method: as §2, §1

P. aeruginosa = assay: Minimum Bactericidal Concentration (MBC) assay (CAMHB); format: cell-based, Pseudomonas aeruginosa; details: Table 4, all ΔΔ- enantiomers
Method: as §1

[1] = system: MRSA (a wild clinical strain from the JCU culture collection); assay: MIC determination, broth micro-dilution (CAMHB); format: cell-based, methicillin-resistant S. aureus
Method: as §2, §1

MRSA = assay: Minimum Bactericidal Concentration (MBC) assay (CAMHB); format: cell-based, methicillin-resistant S. aureus; details: Table 4, all ΔΔ- enantiomers
Method: as §1

P. aeruginosa ATCC 27853 = assay: MIC determination, broth micro-dilution (CAMHB); format: cell-based, Pseudomonas aeruginosa
Method: as §2, §1

[2] = format: physicochemical; details: pH 7.4
Method: The primary difference between the members of the Rubbn family of complexes is the number of methylene groups in the flexible linking chain. […] Lipophilicity is a significant factor affecting the biological activity of most therapeutic compounds, as it relates to the capacity of the drug to penetrate through the cell membrane. The standard octanol-water partition coefficient (logP) was determined for the Rubbn series (F. Lombardo, B. Faller, M. Shalaeva, I. Tetko and S. Tilton, Methods and Principles in Medicinal Chemistry, 2008, 37, 407) parent model mononuclear species ([Ru(phen)2(Me2bpy)]^2+) and the trinuclear and tetranuclear complexes.
The partition coefficients (logP) were measured using the shake flask technique: each ruthenium complex (at both 0.05 and 0.1 mM) was dissolved in the water phase (0.2 M Na2HPO4—NaH2PO4 buffer, pH=7.4) and an equivalent volume of n-octanol was added.
The two phases were mutually saturated by shaking overnight at ambient temperature and then were allowed to separate on standing. The concentration of the metal complex in each phase was determined spectrophotometrically at l=450 nm.

E. faecalis = assay: Further MIC assays, whole spectrum bacteria (CAMHB); format: cell-based; set-up: unit not given beside the values; details: Table 3; Broth: CAMHB
Method: (§3) Further MIC assays were conducted against five different bacteria with Rubbn (n=7, 10, 12, 16), two rigid dinuclear species (bridges bpm and dppm) and Gentamicin—Whole spectrum bacteria MIC test results (Broth: CAMHB).

A. baumanii = assay: as above; format: cell-based; set-up: unit not given here; details: Table 3; Broth: CAMHB
Method: as §3

S. typhimurium = assay: as above; format: cell-based; details: Table 3; Broth: CAMHB
Method: as §3

S. epidermidis = assay: as above; format: cell-based; details: Table 3; Broth: CAMHB
Method: as §3

VRE = assay: as above; format: cell-based, vancomycin-resistant Enterococcus; details: Table 3; Broth: CAMHB
Method: as §3

[3] = Table 4, CAMHB, all ΔΔ- enantiomers

Compound | MBC E. coli (E. coli) | MBC S. aureus (S. aureus) | MIC S. aureus (S. aureus ATCC 25923; [3]) | MIC E. coli (E. coli ATCC 25922; [3]) | MBC P. aeruginosa (P. aeruginosa) | MIC MRSA [1, 3] | MBC MRSA (MRSA) | MIC P. aeruginosa (P. aeruginosa ATCC 27853; [3]) | logP [2] | MIC S. aureus (S. aureus ATCC 25923; Table 1, 37° C., 24 h) | MIC E. faecalis (E. faecalis) | MIC A. baumanii (A. baumanii) | MIC E. coli (E. coli ATCC 25922; Table 1, 37° C., 24 h) | MIC S. typhimurium (S. typhimurium) | MIC S. epidermidis (S. epidermidis) | MIC MRSA ([1]; Table 1, 37° C., 24 h) | MIC VRE (VRE) | MIC P. aeruginosa (P. aeruginosa ATCC 27853; Table 1, 37° C., 24 h)
Cc1cc[n+]2c(c1)-c1cc(CCCCCCCc3cc[n+]4c(c3)-c3cc(C)cc[n+]3[Ru-4]435([n+]4cccc6ccc7ccc[n+]3c7c64)[n+]3cccc4ccc6ccc[n+]5c6c43)cc[n+]1[Ru-4]213([Cl])[n+]2ccccc2-c2cccc([n+]21)-c1cccc[n+]13 [Ru(μ-bb7)Ru—Cl, [Ru(phen)2(μ-bb7)Ru(terpy)Cl]] | 1 µg/mL | 16 µg/mL | 8 | 1 | 32 µg/mL | 8 | 32 µg/mL | 16 | – | – | – | – | – | – | – | – | – | –
Cc1cc[n+]2c(c1)-c1cc(CCCCCCCc3cc[n+]4c(c3)-c3cc(C)cc[n+]3[Ru-4]435([n+]4cccc6ccc7ccc[n+]3c7c64)[n+]3cccc4ccc6ccc[n+]5c6c43)cc[n+]1[Ru-4]213([n+]2cccc4ccc5ccc[n+]1c5c42)[n+]1cccc2ccc4ccc[n+]3c4c21.F[P-](F)(F)(F)(F)F.F[P-](F)(F)(F)(F)F.F[P-](F)(F)(F)(F)F.F[P-](F)(F)(F)(F)F [Rubb7, [{Ru(phen)2}2(μ-bb7)](PF6)4] | 16 µg/mL | 32 µg/mL | 16 | 16 | 128 µg/mL | 16 | 32 µg/mL | 64 | −3.4 | – | – | – | – | – | – | – | – | –
Cc1cc[n+]2c(c1)-c1cc(CCCCCCCCCCCCc3cc[n+]4c(c3)-c3cc(C)cc[n+]3[Ru-4]435([Cl])[n+]4ccccc4-c4cccc([n+]43)-c3cccc[n+]35)cc[n+]1[Ru-4]213([Cl])[n+]2ccccc2-c2cccc([n+]21)-c1cccc[n+]13.F[P-](F)(F)(F)(F)F.F[P-](F)(F)(F)(F)F [Rubb12-Cl, [{Ru(terpy)(Cl)}2(μ-bb12)](PF6)2] | 2 µg/mL | 1 µg/mL | 1 | 2 | 16 µg/mL | 1 | 1 µg/mL | 8 | – | – | – | – | – | – | – | – | – | –
[Cl-].[Cl-].[Cl-].[Cl-].c1cc[n+]2c(c1)-c1cc3[n+](c[n+]1[Ru-4]214([n+]2cccc5ccc6ccc[n+]1c6c52)[n+]1cccc2ccc5ccc[n+]4c5c21)[Ru-4]12([n+]4ccccc4-3)([n+]3cccc4ccc5ccc[n+]1c5c43)[n+]1cccc3ccc4ccc[n+]2c4c31 [Rudppm, ΔΔ-[{Ru(phen)2}2(μ-4,6-bis(2-pyridyl)pyrimidine)]Cl4, reference compound] | – | – | – | – | – | – | – | – | – | >128 µg/mL | >128 | >128 | >128 µg/mL | >128 | >128 | >128 µg/mL | >128 | >128 µg/mL
[Ru(phen)2(μ-bb12)Ru(terpy)Cl](PF6)3 [Ru(μ-bb12)Ru—Cl] | 1 µg/mL | 1 µg/mL | 1 | 1 | 32 µg/mL | 1 | 2 µg/mL | 16 | – | – | – | – | – | – | – | – | – | –
[Ru(phen)2(μ-bb16)Ru(terpy)Cl](PF6)3 [Ru(μ-bb16)Ru—Cl] | 4 µg/mL | 2 µg/mL | 2 | 4 | 64 µg/mL | 2 | 2 µg/mL | 64 | – | – | – | – | – | – | – | – | – | –
